Reference: PubChem BioAssay (NCI)
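96-well plates; 48 h exposure; 5 concentrations. Endpoints by linear interpolation between flanking doses. Not reached: highest tested concentration assigned. At the GI50, growth is halved. The concentration for full growth arrest is given as TGI.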

Experiments:
Test in all cases: NCI-60 cell line screen, 48 h
[1] = system: MDA-MB-435
[2] = system: HS 578T breast
[3] = system: MDA-MB-231 breast
[4] = system: PC-3 prostate
[5] = system: MCF7 breast
[6] = system: NCI/ADR-RES ovarian

SMILES | GI50 [1] | TGI [1] | GI50 [2] | TGI [2] | GI50 [3] | TGI [3] | GI50 [4] | TGI [4] | GI50 [5] | TGI [5] | GI50 [6] | TGI [6]
CC(C)(C)c1nc(-c2cccc(NS(=O)(=O)c3c(F)cccc3F)c2F)c(-c2ccnc(N)n2)s1 | < 10 nM | > 100 µM | 61100 nM | > 100 µM | 7190 nM | > 69.9 µM | 41.3 µM | > 100 µM | 27300 nM | > 100 µM | 50.9 µM | > 100 µM
CCc1nc2cc(/C=C/C(=O)NO)ccc2c(=O)n1CCc1ccc(OC)cc1 | 2700 nM | 42.6 µM | 2130 nM | 34.3 µM | 2310 nM | 7.66 µM | 3.32 µM | > 100 µM | 2380 nM | 17.7 µM | 1.35 µM | 12.3 µM
COc1ccc2nc3cccc([N+](=O)[O-])c3c(NCCNCCN(C)C)c2c1 | 111 nM | 0.248 µM | 175 nM | 0.558 µM | 658 nM | 4.17 µM | – | 0.293 µM | 19.2 nM | 0.221 µM | 0.884 µM | 4.67 µM
O=C(/C=C\n1cnc(-c2cc(C(F)(F)F)cc(C(F)(F)F)c2)n1)N1CC(F)(F)C1 | 1400 nM | 6.38 µM | 409 nM | 5.34 µM | 305 nM | 4.52 µM | 0.277 µM | 4.54 µM | 212 nM | 1.64 µM | 0.552 µM | 10.9 µM
Cc1c(C)c2c(c(C)c1OCC(=O)O)CC[C@@](C)(CCC[C@@H](C)CCC[C@@H](C)CCCC(C)C)O2 | 72600 nM | 142 µM | 89000 nM | 229 µM | 95200 nM | 218 µM | 34.9 µM | 106 µM | 74600 nM | 199 µM | 78.7 µM | 210 µM
COc1cc(-c2cc3ncccc3c3[nH]c(=O)c4cccnc4c23)cc(OC)c1OC | 181 nM | > 100 µM | 914 nM | > 100 µM | 1540 nM | > 100 µM | 0.858 µM | > 100 µM | 394 nM | > 100 µM | 0.482 µM | > 100 µM
Nc1nc2c(ccc3ccccc32)s1 | 57100 nM | > 100 µM | > 100000 nM | > 100 µM | > 100000 nM | > 100 µM | 33.7 µM | > 100 µM | 78700 nM | > 100 µM | > 100 µM | > 100 µM
O=C(Nc1ccc2c(c1)OCCO2)C(=O)c1c[nH]c2ccccc12 | 166 nM | 0.531 µM | 1720 nM | 22.9 µM | 1370 nM | 14.7 µM | 2.17 µM | > 100 µM | 1310 nM | > 100 µM | 0.375 µM | 5.06 µM
Nc1ccc(-c2ccc3ncc4ccc(=O)n(-c5cccc(C(F)(F)F)c5)c4c3c2)cn1 | < 10 nM | 3.26 µM | < 10 nM | < 0.0253 µM | < 14.1 nM | 2.21 µM | < 0.01 µM | 5.38 µM | < 10 nM | 12.8 µM | 0.02 µM | 13.1 µM
O=C(Oc1ccccc1)C(Br)C(Br)c1ccccc1 (stereo unspecified) | 1620 nM | 3.09 µM | 2870 nM | 8.12 µM | 14400 nM | 29.6 µM | 14.9 µM | 30.1 µM | 1680 nM | 11.4 µM | 3.71 µM | 19.9 µM
O=C(O)Cn1ccc2ccccc21 | > 100000 nM | > 100 µM | > 100000 nM | > 100 µM | > 100000 nM | > 100 µM | > 100 µM | > 100 µM | > 100000 nM | > 100 µM | > 100 µM | > 100 µM
CN1CCN(CCCOc2cccc3nc(Nc4ccc(F)c(F)c4)ccc23)CC1 | 1270 nM | 5.14 µM | 4730 nM | 11.8 µM | 937 nM | 3.38 µM | 3.83 µM | 8.43 µM | 3330 nM | 7.88 µM | 5.16 µM | 10.5 µM
C=C(CN1c2ccccc2Sc2ccccc21)c1ccc(C(=O)Nc2ccccc2N)cc1 | 3870 nM | 25 µM | > 100000 nM | > 100 µM | 20300 nM | > 79.4 µM | 5.07 µM | > 100 µM | > 42000 nM | > 100 µM | 8.77 µM | > 100 µM
CCn1c(=N)sc2nc3ccccc3n2c1=O | – | > 100 µM | – | > 100 µM | – | > 100 µM | – | > 100 µM | – | > 100 µM | – | > 100 µM
CCOC(=O)C#Cc1c(C(=O)OCC)nnn1[C@@H]1O[C@H](CO)[C@H]2OC3(CCCCC3)O[C@H]21 | 4490 nM | 16 µM | 19600 nM | 58.3 µM | 2970 nM | 8.79 µM | 13.5 µM | 26.8 µM | 2110 nM | 6.56 µM | 7.27 µM | 29.8 µM
O=C1Nc2ccccc2/C1=C/c1cn(CC(O)Cn2cc(/C=C3\C(=O)Nc4ccccc43)c3ccccc32)c2ccccc12 (stereo unspecified) | 1810 nM | 3.46 µM | 2430 nM | 7.85 µM | 1270 nM | 2.71 µM | 1.21 µM | 2.66 µM | – | – | 12.1 µM | 57.1 µM
COc1ccc(-c2n[nH]nc2-c2cc(OC)c3c(c2)OCO3)cc1 | < 10 nM | – | 21.9 nM | 3.72 µM | 40.9 nM | 0.437 µM | 0.0384 µM | > 100 µM | < 10 nM | > 82.3 µM | < 0.01 µM | 0.982 µM
CCc1nn2ncccc2c1-c1ccnc(NC2CC2)n1 | > 25000 nM | > 25 µM | > 18500 nM | > 25 µM | > 25000 nM | > 25 µM | > 25 µM | > 25 µM | > 25000 nM | > 25 µM | > 25 µM | > 25 µM
CCCCN1C(=O)/C(=c2\sc3n(c2=O)C2C(NN=3)N(CC)C(=O)N2CC)c2ccccc21 (stereo unspecified) | 255 nM | 0.655 µM | 749 nM | 6.04 µM | 1380 nM | 3.74 µM | – | – | – | – | – | –
CCN(CC)c1ccc2nc3ccc(N=Nc4ccc(O)cc4)cc3[n+](-c3ccccc3)c2c1 | – | – | 1880 nM | > 100 µM | – | – | – | – | 1900 nM | 5.11 µM | > 100 µM | > 100 µM
Oc1c(O)c(Cl)c(Cl)c(Cl)c1Cl | 3420 nM | 18.1 µM | 3750 nM | 23 µM | 5100 nM | 38.5 µM | 3.43 µM | 18.1 µM | 3250 nM | 16.2 µM | 3.01 µM | 10.3 µM
COc1cc(-c2nccc3cc4c(cc23)OCO4)cc(OC)c1OC | 411 nM | 3.55 µM | 1640 nM | 9.57 µM | 16100 nM | > 100 µM | 4.25 µM | > 100 µM | 2880 nM | > 100 µM | 2.74 µM | > 100 µM
CCN(CC)c1ccc(/C=N/NC(=O)CSc2nc3ccccc3c(=O)n2Cc2ccc(S(N)(=O)=O)cc2)c(O)c1 | 2070 nM | > 100 µM | 2110 nM | > 100 µM | 643 nM | > 100 µM | 0.829 µM | > 100 µM | 457 nM | > 100 µM | > 100 µM | > 100 µM
COc1cc(CN(c2ccc(C)cc2)C2OC(=O)c3ccccc32)cc(OC)c1OC (stereo unspecified) | – | – | 308 nM | > 100 µM | 846 nM | > 100 µM | 0.432 µM | > 100 µM | 339 nM | > 100 µM | 0.389 µM | > 100 µM
C=C1C(=O)O[C@H]2[C@H]1CC/C(COC(=O)NCCc1cccc(OC)c1)=C\CC[C@@]1(C)O[C@@H]21 | 1580 nM | 3.7 µM | 3430 nM | 21.6 µM | 1560 nM | 3.47 µM | 2.3 µM | 5.54 µM | 494 nM | 2.1 µM | 2.95 µM | 10.8 µM
COc1ccc(-c2nn3ncccc3c2-c2ccnc(Nc3ccc4c(c3)OCCO4)n2)cc1 | 12500 nM | > 25 µM | 10200 nM | > 25 µM | 6550 nM | > 25 µM | 9.12 µM | > 25 µM | 13800 nM | > 25 µM | 7.52 µM | > 25 µM
Cc1cn2c(/C=N/N=C(N)N)c(-c3ccncc3)nc2s1 | 17200 nM | 33.8 µM | – | – | 52600 nM | > 100 µM | 18.8 µM | 32.8 µM | – | – | > 100 µM | > 100 µM
CC12OC(C(=O)C13CCC3)C1C(=O)c3ccc4c(ccc5ccccc54)c3C(=O)C12 (stereo unspecified) | 12800 nM | 30.3 µM | 16000 nM | 76.1 µM | – | – | 7.61 µM | 28.8 µM | 5100 nM | 30.7 µM | 4.45 µM | 22.8 µM
COc1cc2nc(-c3cccc4cccnc34)nc(NC3CCN(Cc4ccccc4)CC3)c2cc1OC | 1560 nM | 3.08 µM | 2070 nM | 4.81 µM | 1360 nM | 2.75 µM | 1.36 µM | 2.83 µM | – | – | 2.1 µM | 5.61 µM
